According to publication PMC5218480 (PLoS ONE, 2017):

Test system: MV-4-11 cells
Experiment: Gene expression microarray analysis (Affymetrix PrimeView) and GSEA
Assay type: cell-based, human
Design: RFU PODN (11730768_x_at) / Fold change /veh PODN (11730768_x_at) / RFU LINC00158 (11744669_a_at) / Fold change /veh LINC00158 (11744669_a_at) / RFU DUSP10 (11751237_a_at) / Fold change /veh DUSP10 (11751237_a_at) / RFU ID3 (11757404_x_at) / Fold change /veh ID3 (11757404_x_at) / RFU PLEKHG5 (11737974_s_at) / Fold change /veh PLEKHG5 (11737974_s_at) / RFU LRRC4B (11730491_at) / Fold change /veh LRRC4B (11730491_at) / RFU GIMAP4 (11747438_a_at) / Fold change /veh GIMAP4 (11747438_a_at) / RFU KRT8 (11758183_x_at) / Fold change /veh KRT8 (11758183_x_at) / RFU CNN1 (11734310_a_at) / Fold change /veh CNN1 (11734310_a_at) / RFU VPS37D (11726825_at) / Fold change /veh VPS37D (11726825_at) / RFU C10orf10 (11716522_x_at) / Fold change /veh C10orf10 (11716522_x_at) / RFU KIR2DL2 /// KIR2DL4 /// KIR2DL5A /// KIR2DL5B /// KIR2DS1 /// KIR2DS2 /// KIR2DS3 /// KIR2DS4 /// KIR3DL3 /// KIR3DL3 /// KIR3DS1 (11738374_at) / Fold change /veh KIR2DL2 /// KIR2DL4 /// KIR2DL5A /// KIR2DL5B /// KIR2DS1 /// KIR2DS2 /// KIR2DS3 /// KIR2DS4 /// KIR3DL3 /// KIR3DL3 /// KIR3DS1 (11738374_at) / RFU C1QL1 (11718748_at) / Fold change /veh C1QL1 (11718748_at) / RFU TMPRSS4 (11747572_a_at) / Fold change /veh TMPRSS4 (11747572_a_at) / RFU HAMP (11756126_x_at) / Fold change /veh HAMP (11756126_x_at) / RFU RNFT2 (11725882_a_at) / Fold change /veh RNFT2 (11725882_a_at) / RFU NR4A2 (11747474_a_at) / Fold change /veh NR4A2 (11747474_a_at) / RFU ABCC12 (11746883_a_at) / Fold change /veh ABCC12 (11746883_a_at) / RFU TMEM136 (11760407_x_at) / Fold change /veh TMEM136 (11760407_x_at) / RFU CLDN22 /// WWC2 (11732394_at) / Fold change /veh CLDN22 /// WWC2 (11732394_at) / RFU HLA-DPB1 (11760878_x_at) / Fold change /veh HLA-DPB1 (11760878_x_at) / RFU SPINT1 (11716480_a_at) / Fold change /veh SPINT1 (11716480_a_at) / RFU GAP43 (11754022_s_at) / Fold change /veh GAP43 (11754022_s_at) / RFU A4GNT (11735810_at) / Fold change /veh A4GNT (11735810_at) / RFU PRB3 (11715151_x_at) / Fold change /veh PRB3 (11715151_x_at) / RFU TUBB4B (11761932_at) / Fold change /veh TUBB4B (11761932_at) / RFU CAPN14 (11732068_a_at) / Fold change /veh CAPN14 (11732068_a_at) / RFU TMCC2 (11721928_a_at) / Fold change /veh TMCC2 (11721928_a_at) / RFU IRGQ (11745062_a_at) / Fold change /veh IRGQ (11745062_a_at) / RFU FAM174B (11720279_a_at) / Fold change /veh FAM174B (11720279_a_at) / RFU TMPRSS4 (11748680_a_at) / Fold change /veh TMPRSS4 (11748680_a_at) / RFU FAM212B (11763350_a_at) / Fold change /veh FAM212B (11763350_a_at) / RFU PLEKHG5 (11743358_a_at) / Fold change /veh PLEKHG5 (11743358_a_at) / RFU ZSCAN30 (11745921_a_at) / Fold change /veh ZSCAN30 (11745921_a_at) / RFU CMKLR1 (11741424_a_at) / Fold change /veh CMKLR1 (11741424_a_at) / RFU LOC101060620 /// MAPK8IP1 (11723275_at) / Fold change /veh LOC101060620 /// MAPK8IP1 (11723275_at) / RFU SPTSSB (11747773_x_at) / Fold change /veh SPTSSB (11747773_x_at) / RFU PRSS12 (11739890_at) / Fold change /veh PRSS12 (11739890_at) / RFU BIN1 (11741810_x_at) / Fold change /veh BIN1 (11741810_x_at) / RFU WNT11 (11732464_a_at) / Fold change /veh WNT11 (11732464_a_at) / RFU C10orf10 (11716521_a_at) / Fold change /veh C10orf10 (11716521_a_at) / RFU C5orf56 (11738089_at) / Fold change /veh C5orf56 (11738089_at) / RFU CYB561 (11721691_x_at) / Fold change /veh CYB561 (11721691_x_at) / RFU ANKRD19P (11752326_a_at) / Fold change /veh ANKRD19P (11752326_a_at) / RFU OR2T12 /// OR2T33 /// OR2T8 (11738714_s_at) / Fold change /veh OR2T12 /// OR2T33 /// OR2T8 (11738714_s_at) / RFU VCAN (11748164_a_at) / Fold change /veh VCAN (11748164_a_at) / RFU JSRP1 (11732532_at) / Fold change /veh JSRP1 (11732532_at) / RFU KRTAP10-11 (11738290_x_at) / Fold change /veh KRTAP10-11 (11738290_x_at) / RFU MYO3A (11730013_a_at) / Fold change /veh MYO3A (11730013_a_at) / RFU EBF3 (11725865_a_at) / Fold change /veh EBF3 (11725865_a_at) / RFU CAMK2N1 (11719241_x_at) / Fold change /veh CAMK2N1 (11719241_x_at) / RFU C5orf56 (11738088_a_at) / Fold change /veh C5orf56 (11738088_a_at) / RFU OLFML3 (11715873_a_at) / Fold change /veh OLFML3 (11715873_a_at) / RFU LOC100653217 /// NTM (11731650_a_at) / Fold change /veh LOC100653217 /// NTM (11731650_a_at) / RFU MAPK11 (11762145_a_at) / Fold change /veh MAPK11 (11762145_a_at) / RFU FIZ1 (11724087_x_at) / Fold change /veh FIZ1 (11724087_x_at) / RFU OASL (11726364_x_at) / Fold change /veh OASL (11726364_x_at) / RFU SOX15 (11748057_x_at) / Fold change /veh SOX15 (11748057_x_at) / RFU CD79A (11719716_a_at) / Fold change /veh CD79A (11719716_a_at) / RFU HIST1H1D (11736915_at) / Fold change /veh HIST1H1D (11736915_at) / RFU CASKIN2 (11723855_a_at) / Fold change /veh CASKIN2 (11723855_a_at) / RFU LOC730098 (11760151_x_at) / Fold change /veh LOC730098 (11760151_x_at) / RFU OR4N2 (11742367_at) / Fold change /veh OR4N2 (11742367_at) / RFU PRRT2 (11749266_a_at) / Fold change /veh PRRT2 (11749266_a_at) / RFU SNX32 (11753110_a_at) / Fold change /veh SNX32 (11753110_a_at) / RFU CDHR5 (11726645_a_at) / Fold change /veh CDHR5 (11726645_a_at) / RFU RCAN1 (11760418_a_at) / Fold change /veh RCAN1 (11760418_a_at) / RFU FAM167A (11723789_a_at) / Fold change /veh FAM167A (11723789_a_at) / RFU FAM26E (11764081_at) / Fold change /veh FAM26E (11764081_at) / RFU ISYNA1 (11749810_s_at) / Fold change /veh ISYNA1 (11749810_s_at) / RFU ACY1 (11761880_at) / Fold change /veh ACY1 (11761880_at) / RFU 11764098_at / Fold change /veh 11764098_at / RFU SAMD14 (11745864_x_at) / Fold change /veh SAMD14 (11745864_x_at) / RFU NPB (11741838_a_at) / Fold change /veh NPB (11741838_a_at) / RFU TMPRSS6 (11731388_a_at) / Fold change /veh TMPRSS6 (11731388_a_at) / RFU KRTAP10-2 (11738614_at) / Fold change /veh KRTAP10-2 (11738614_at) / RFU ARHGAP8 /// PRR5-ARHGAP8 (11727945_x_at) / Fold change /veh ARHGAP8 /// PRR5-ARHGAP8 (11727945_x_at) / RFU KRTAP5-7 /// NADSYN1 (11734609_at) / Fold change /veh KRTAP5-7 /// NADSYN1 (11734609_at) / RFU RASL12 (11751679_a_at) / Fold change /veh RASL12 (11751679_a_at) / RFU CDKN2B (11736163_a_at) / Fold change /veh CDKN2B (11736163_a_at) / RFU PRF1 (11729649_at) / Fold change /veh PRF1 (11729649_at) / RFU, ZNF638 /// ZNF638-IT1 / Fold change vs veh, ZNF638 /// ZNF638-IT1 / RFU, PANK3 / Fold change vs veh, PANK3 / RFU, SH3YL1 / Fold change vs veh, SH3YL1 / RFU, ZEB2 / Fold change vs veh, ZEB2 / RFU, NRIP1 / Fold change vs veh, NRIP1 / RFU, PTTG1IP / Fold change vs veh, PTTG1IP / RFU, CAPN2 / Fold change vs veh, CAPN2 / RFU, MED14 / Fold change vs veh, MED14 / RFU, SNORA58 / Fold change vs veh, SNORA58 / RFU, C1orf63 / Fold change vs veh, C1orf63 / RFU, LRRFIP1 / Fold change vs veh, LRRFIP1 / RFU, NDUFAF7 / Fold change vs veh, NDUFAF7 / RFU, SLC12A2 / Fold change vs veh, SLC12A2 / RFU, IBTK / Fold change vs veh, IBTK / RFU, ESF1 / Fold change vs veh, ESF1 / Fold change vs veh, TMEM50B / RFU, TAOK1 / Fold change vs veh, TAOK1 / RFU, ACBD3 / Fold change vs veh, ACBD3 / RFU, TMA16 / Fold change vs veh, TMA16 / RFU, RWDD3 / Fold change vs veh, RWDD3 / RFU, BCAT1 / Fold change vs veh, BCAT1 / RFU, EDEM3 / Fold change vs veh, EDEM3 / RFU, TMEM33 / Fold change vs veh, TMEM33 / RFU, WDR75 / Fold change vs veh, WDR75 / RFU, AHCTF1 / Fold change vs veh, AHCTF1 / RFU, TFRC / Fold change vs veh, TFRC / RFU, ZDHHC17 / Fold change vs veh, ZDHHC17 / RFU, NOM1 / Fold change vs veh, NOM1 / RFU, ARL8B / Fold change vs veh, ARL8B / RFU, ZBTB11 / Fold change vs veh, ZBTB11 / RFU, TAMM41 / Fold change vs veh, TAMM41 / RFU, KIAA1704 /// LOC100996395 / Fold change vs veh, KIAA1704 /// LOC100996395 / RFU, ING1 / Fold change vs veh, ING1 / RFU, TRMT61B / Fold change vs veh, TRMT61B / RFU, FUBP3 / Fold change vs veh, FUBP3 / RFU, TP53 / Fold change vs veh, TP53 / RFU, TNKS2 / Fold change vs veh, TNKS2 / RFU, ZFP14 / Fold change vs veh, ZFP14 / RFU, ACTR2 / Fold change vs veh, ACTR2 / RFU, PPP3R1 / Fold change vs veh, PPP3R1 / RFU, PIK3R1 / Fold change vs veh, PIK3R1 / RFU, HNRNPA1 / Fold change vs veh, HNRNPA1 / RFU, RNF170 / Fold change vs veh, RNF170 / RFU, ZNF28 / Fold change vs veh, ZNF28 / RFU, RNGTT / Fold change vs veh, RNGTT / RFU, OGT / Fold change vs veh, OGT / RFU, BRD1 / Fold change vs veh, BRD1 / RFU, MARS / Fold change vs veh, MARS / RFU, ZNF655 / Fold change vs veh, ZNF655 / RFU, FAHD1 / Fold change vs veh, FAHD1 / RFU, BDP1 / Fold change vs veh, BDP1 / RFU, LRRCC1 / Fold change vs veh, LRRCC1 / RFU, ARID1A / Fold change vs veh, ARID1A / RFU, ZNF146 / Fold change vs veh, ZNF146 / RFU, ZNF330 / Fold change vs veh, ZNF330 / RFU, GPN3 / Fold change vs veh, GPN3 / RFU, C9orf123 / Fold change vs veh, C9orf123 / RFU, N4BP2L2 / Fold change vs veh, N4BP2L2 / RFU, ARFIP1 / Fold change vs veh, ARFIP1 / RFU, FAM179B / Fold change vs veh, FAM179B / RFU, BCL10 / Fold change vs veh, BCL10 / RFU, UHRF1BP1L / Fold change vs veh, UHRF1BP1L / RFU, BET1 / Fold change vs veh, BET1 / RFU, CNOT2 / Fold change vs veh, CNOT2 / RFU, ZNF268 / Fold change vs veh, ZNF268 / Fold change vs veh, ZNF507 / RFU, DGCR2 / Fold change vs veh, DGCR2 / RFU, WDSUB1 / Fold change vs veh, WDSUB1 / Fold change vs veh, HSP90B1 /// MIR3652 / RFU, ADSS / Fold change vs veh, ADSS / RFU, GK / Fold change vs veh, GK / RFU, ZNF148 / Fold change vs veh, ZNF148 / RFU, TAF9 / Fold change vs veh, TAF9 / RFU, SLC1A5 / Fold change vs veh, SLC1A5 / RFU, SLMO2 / Fold change vs veh, SLMO2 / RFU, ABCC4 / Fold change vs veh, ABCC4 / RFU, LOC101060439 /// RAP1B / Fold change vs veh, LOC101060439 /// RAP1B / RFU, RFX7 / Fold change vs veh, RFX7 / RFU, GTPBP10 / Fold change vs veh, GTPBP10 / RFU, CNEP1R1 / Fold change vs veh, CNEP1R1 / RFU, BIVM-ERCC5 /// ERCC5 / Fold change vs veh, BIVM-ERCC5 /// ERCC5 / RFU, ILF3 / Fold change vs veh, ILF3 / RFU 11762660_at / Fold change /veh 11762660_at / RFU VCAN (11757783_s_at) / Fold change /veh VCAN (11757783_s_at) / RFU DDX43 (11728927_at) / Fold change /veh DDX43 (11728927_at) / RFU KRT8 (11758188_x_at) / Fold change /veh KRT8 (11758188_x_at) / RFU NKD1 (11759106_at) / Fold change /veh NKD1 (11759106_at) / RFU SRD5A1 (11742802_a_at) / Fold change /veh SRD5A1 (11742802_a_at) / RFU TPSAB1 /// TPSB2 (11721975_s_at) / Fold change /veh TPSAB1 /// TPSB2 (11721975_s_at) / RFU GSTM3 (11746129_a_at) / Fold change /veh GSTM3 (11746129_a_at) / RFU IL23R (11737362_x_at) / Fold change /veh IL23R (11737362_x_at) / RFU TMEM51 (11727254_a_at) / Fold change /veh TMEM51 (11727254_a_at) / RFU PIWIL2 (11732686_x_at) / Fold change /veh PIWIL2 (11732686_x_at) / RFU ORM1 (11744905_x_at) / Fold change /veh ORM1 (11744905_x_at) / RFU CCDC152 (11743942_at) / Fold change /veh CCDC152 (11743942_at) / RFU ECM1 (11717891_a_at) / Fold change /veh ECM1 (11717891_a_at) / RFU IL23R (11748794_a_at) / Fold change /veh IL23R (11748794_a_at) / RFU TNFAIP8L3 (11732012_x_at) / Fold change /veh TNFAIP8L3 (11732012_x_at) / RFU MBOAT4 (11741988_at) / Fold change /veh MBOAT4 (11741988_at) / RFU 11764193_at / Fold change /veh 11764193_at / RFU TMEM53 (11763286_at) / Fold change /veh TMEM53 (11763286_at) / RFU MAGEB2 (11727129_at) / Fold change /veh MAGEB2 (11727129_at) / RFU TMEM200A (11744735_a_at) / Fold change /veh TMEM200A (11744735_a_at) / RFU CCDC152 (11751479_a_at) / Fold change /veh CCDC152 (11751479_a_at) / RFU FAM211A (11726209_a_at) / Fold change /veh FAM211A (11726209_a_at) / RFU RGS16 (11746705_a_at) / Fold change /veh RGS16 (11746705_a_at) / RFU VCAN (11755009_s_at) / Fold change /veh VCAN (11755009_s_at) / RFU RHOB (11743442_s_at) / Fold change /veh RHOB (11743442_s_at) / RFU RGS16 (11720943_a_at) / Fold change /veh RGS16 (11720943_a_at) / RFU RGS16 (11720944_at) / Fold change /veh RGS16 (11720944_at) / RFU, VPS4B / Fold change vs veh, VPS4B / RFU, CREB1 / Fold change vs veh, CREB1 / RFU, DNAJC13 / Fold change vs veh, DNAJC13 / RFU, GNAQ / Fold change vs veh, GNAQ / RFU, CDK5R1 / Fold change vs veh, CDK5R1 / RFU, ZRANB3 / Fold change vs veh, ZRANB3 / RFU, CUL4A / Fold change vs veh, CUL4A / RFU, CCNY / Fold change vs veh, CCNY / RFU, UFL1 / Fold change vs veh, UFL1 / RFU, COG3 / Fold change vs veh, COG3 / RFU, DIAPH2 / Fold change vs veh, DIAPH2 / RFU, SKA2 / Fold change vs veh, SKA2 / RFU, AFF3 / Fold change vs veh, AFF3 / RFU, LMF1 / Fold change vs veh, LMF1 / RFU, IPO11 / Fold change vs veh, IPO11 / RFU, DFFB / Fold change vs veh, DFFB / RFU, FOXP1 / Fold change vs veh, FOXP1 / RFU, CARD8 / Fold change vs veh, CARD8 / RFU, STRN3 / Fold change vs veh, STRN3 / RFU, ADK / Fold change vs veh, ADK / RFU, RASSF2 / Fold change vs veh, RASSF2 / RFU, WIPF1 / Fold change vs veh, WIPF1 / RFU, LARP1B / Fold change vs veh, LARP1B / RFU, RASA1 / Fold change vs veh, RASA1 / RFU, RB1 / Fold change vs veh, RB1 / RFU, PPFIA1 / Fold change vs veh, PPFIA1 / RFU, MAT2A / Fold change vs veh, MAT2A / RFU, CCT5 / Fold change vs veh, CCT5 / RFU, WDR92 / Fold change vs veh, WDR92 / RFU, CUX1 / Fold change vs veh, CUX1 / RFU, TTC7A / Fold change vs veh, TTC7A / RFU, TMEM135 / Fold change vs veh, TMEM135 / RFU, DEPTOR / Fold change vs veh, DEPTOR / RFU, CPM / Fold change vs veh, CPM / RFU, DNAJB6 / Fold change vs veh, DNAJB6 / RFU, CACNA2D3 / Fold change vs veh, CACNA2D3 / RFU, DTX4 / Fold change vs veh, DTX4 / RFU, TFCP2 / Fold change vs veh, TFCP2 / RFU, GMCL1 /// GMCL1P1 / Fold change vs veh, GMCL1 /// GMCL1P1 / RFU, AEBP2 / Fold change vs veh, AEBP2 / RFU, SNHG1 /// SNORD22 /// SNORD25 /// SNORD26 /// SNORD27 /// SNORD28 /// SNORD29 /// SNORD31 / Fold change vs veh, SNHG1 /// SNORD22 /// SNORD25 /// SNORD26 /// SNORD27 /// SNORD28 /// SNORD29 /// SNORD31 / Fold change (Aza/veh), C12orf56 (ProbeSet 11735607_a_at) / Fold change (ACY-1035/veh), C12orf56 (ProbeSet 11735607_a_at) / Fold change (Aza/veh), FGFR1OP (ProbeSet 11751329_s_at) / Fold change (ACY-1035/veh), FGFR1OP (ProbeSet 11751329_s_at) / Fold change (Aza/veh), VPS36 (ProbeSet 11739960_a_at) / Fold change (ACY-1035/veh), VPS36 (ProbeSet 11739960_a_at) / RFU SYPL1 (11715823_x_at) / Fold change /veh SYPL1 (11715823_x_at) / RFU IGFBP7 (11715501_s_at) / Fold change /veh IGFBP7 (11715501_s_at) / RFU REEP3 (11722064_at) / Fold change /veh REEP3 (11722064_at) / RFU IGLL1 (11728026_x_at) / Fold change /veh IGLL1 (11728026_x_at): dose or concentration left out as unconfirmed
Settings: ProbeSet 11725217_a_at; LIST B

Nc1ncn([C@@H]2O[C@H](CO)[C@@H](O)[C@H]2O)c(=O)n1 [azacitidine]
Fold change vs veh, WDSUB1: 0.86
